Test results: patent US20250108036A1, “COMPOSITIONS FOR REMOVING SENESCENT CELLS AND USES THEREOF” (LIFECEUTIX CO., LTD., priority 2021, published 2025)

Assays:
[1] = system: IL6, MCP1; assay: serum IL6 and MCP1 ELISA in naturally aged mice (Example 7-5); type: in vivo, C57BL6J mice; settings: LX-112 70 mg/kg oral daily 21 days
Description: (§1) After 22-month-old female C57BL6J mice (purchased from KRIBB Laboratory Animal Resource Center) were adapted to the experimental environment for one week, the aged mice were randomized into an experimental group and a control group. 8-week-old mice that were not aged were used as controls. LX-112 was mixed with 0.5% CMC-Na solution (purchased from Sigma) and administered orally at a concentration of 70 mg/kg daily for 21 days. The control group was administered only the solution in the same volume. After drug administration was completed, the method described in each Example below was performed.
Serum collected from mice was stored at −80° C. until use. The amounts of IL6 and MCP1, which are aging-related inflammation secretory factors (SASPs), were measured in serum using an enzyme-linked immunosorbent assay (ELISA Kit, purchased from R&D Systems).

[2] = system: urea, creatinine, Agtr1a mRNA; assay: kidney damage markers in naturally aged mice (Example 7-8); type: in vivo, C57BL6J mice; settings: LX-112 70 mg/kg oral daily 21 days, aged untreated = 100%
Description: as §1
The amounts of urea and creatinine, markers of kidney damage, in serum collected from mice were measured by spectrophotometry using a kit (purchased from BioAssay Systems and Sigma). Additionally, the amount of Agtr1a mRNA, a kidney damage marker, was measured by qRT-PCR as described in Example 7-2. […] The amount of each factor after inducing aging was calculated as 100% and compared with the amount of each factor after treatment with LX-112.

[3] = system: p16, p21; assay: p16 and p21 mRNA qRT-PCR in doxorubicin-aged mice (Example 8-2); type: in vivo, C57BL6J mice; settings: doxorubicin-aged mice, LX-112 70 mg/kg oral daily 21 days; DOX without LX = 100%
Description: (§2) After adapting 8-week-old male C57BL6J mice (purchased from KRIBB Laboratory Animal Resource Center) to the experimental environment for 1 week, doxorubicin, an anticancer drug, was administered intraperitoneally at a concentration of 10 mg/kg, and mice that were induced to age for more than 10 days were assigned to an experimental group and a control group. LX-112 was mixed with 0.5% CMC-Na solution (purchased from Sigma) and administered orally at a concentration of 70 mg/kg daily for 21 days. The control group was administered only the solution in the same volume. After drug administration was completed, the method described in each Example below was performed.
(§3) The mouse was sacrificed in the same manner as in Example 7-2, RNA was extracted from the organ tissue of each region, and qRT-PCR was performed and analyzed using the synthesized cDNA. […] Table 37 calculates the mRNA amounts of p16 and p21 after aging was induced by treatment with the anticancer drug as 100% and compared them with the mRNA amounts of p16 and p21 after treatment with LX-112.

[4] = system: SA-β-gal; assay: SA-β-gal staining of tissues of doxorubicin-aged mice (Example 8-3); type: in vivo, C57BL6J mice; settings: stained area; doxorubicin-aged mice, LX-112 70 mg/kg oral daily 21 days
Description: as §2
Mice were sacrificed in the same method in described in Example 7-3, and tissue sections were prepared from the organ tissues of each region. SA-β-gal, an aging marker was stained. […] FIG. 3 is a photographic result of staining of adipose tissue.

[5] = system: lipofuscin; assay: lipofuscin staining of muscle of doxorubicin-aged mice (Example 8-4); type: in vivo, C57BL6J mice; settings: stained area; doxorubicin-aged mice, LX-112 70 mg/kg oral daily 21 days
Description: as §2
Mice were sacrificed in the same manner as in Example 7-4, and tissue sections were prepared from muscle tissue. Lipofuscin, an aging-related degenerative marker was stained.

[6] = system: p16, p21; assay: p16 and p21 mRNA qRT-PCR in obesity-aged (DIO) mice (Example 9-2); type: in vivo, C57BL6J mice; settings: LX-112 70 mg/kg oral daily 21 days, DIO without LX = 100%
Description: 15-week-old male C57BL6J mice (purchased from Jackson Laboratories), whose obesity was induced by a high-fat diet, were adapted to the experimental environment for one week, and then the mice were randomized into an experimental group and a control group. LX-112 was mixed with 0.5% CMC-Na solution (purchased from Sigma) and administered orally at a concentration of 70 mg/kg daily for 21 days. The control group was administered only the solution in the same volume. After drug administration was completed, the method described in each Example below was performed. Mice were sacrificed and the weight of adipose tissue in each area was measured.
as §3, with “Mice were” for “The mouse was”, “qRT-PCR (quantitative real-time PCR)” for “qRT-PCR”, “54” for “37”, “aging” for “aging was”, “obesity” for “treatment with the anticancer drug”, “compares” for “compared”

[7] = system: foreskin cells in which aging was induced by doxorubicin; assay: cell viability of senescent foreskin cells with caspase inhibitor QVD-Oph (Example 10, Table 61); type: cell-based, human; settings: LX-112 10 μM; for Survial (%): doxorubicin-senescent foreskin cells, 3 days
[8] = system: normally proliferating foreskin cells; assay: survival of normally proliferating foreskin cells treated with medium supernatant (secreted fluid) of compound-killed cells (Example 13, Table 68); type: cell-based, human; settings: after 3 days
Description: After treating cells with the test compound at a high concentration that induces the death of most cells in both non-senescence-induced and senescence-induced cells, the cells were washed three times with PBS to remove the test compound, and replaced with fresh medium and cultured for an additional 3 hours at the time when the compound has entered into the cell but has not yet induced cell death (approximately 1 to 3 hours after compound treatment). During this additional culture, by checking with an optical microscope, etc., the medium supernatants containing secreted fluid from normally proliferating and senescent cells in which cell death was induced were obtained. The obtained medium supernatant was replaced with the medium of normally proliferating and senescent cells, respectively, and cell survival rate was measured after 3 days.

O=c1c2ccccc2[se]n1CCn1[se]c2ccccc2c1=O [LX-112, 1,2-[bis(1,2-benzisoselenazolone-3(2H)-ketone)]ethane]
IL6 (%) [1]: 63 (±12.8) %
MCP1 (%) [1]: 58 (±9.8) %
Agtr1a mRNA (%) ([2]; kidney damage marker): 64 (±7) %
Creatinine (%) ([2]; serum): 87 (±7.8) %
Urea (%) ([2]; serum): 69 (±6) %
p16 mRNA (%) Kidney [3]: 75 (±14.81) %
p16 mRNA (%) Liver [3]: 70 (±8.3) %
p16 mRNA (%) eWAT [3]: 72 (±18.75) %
p21 mRNA (%) Kidney [3]: 83.8 (±9.5)^ %
p21 mRNA (%) Liver [3]: 78 (±11.5) %
p21 mRNA (%) eWAT [3]: 68.4 (±15.1)^ %
SA-β-gal (%) Kidney [4]: 69.2 (±10.2) %
SA-β-gal (%) Liver [4]: 67.4 (±9.9) %
SA-β-gal (%) Lung [4]: 64.2 (±9.2) %
SA-β-gal (%) eWAT [4]: 51.4 (±13.4) %
Lipofuscin (%) Muscle [5]: 77.1 (±8) %
p16 mRNA (%) Liver [6]: 71.3%
p16 mRNA (%) Lung [6]: 81%
p16 mRNA (%) Muscle [6]: 77.8%
p16 mRNA (%) Skin [6]: 79.1%
p16 mRNA (%) asWAT [6]: 84.1%
p16 mRNA (%) eWAT [6]: 61.2%
p16 mRNA (%) iBAT [6]: 89.2%
p16 mRNA (%) iWAT [6]: 79.1%
p21 mRNA (%) Liver [6]: 62.9%
p21 mRNA (%) Lung [6]: 79.3%
p21 mRNA (%) Muscle [6]: 73.2%
p21 mRNA (%) Skin [6]: 78.1%
p21 mRNA (%) asWAT [6]: 82.1%
p21 mRNA (%) eWAT [6]: 67.2%
p21 mRNA (%) iBAT [6]: 70%
p21 mRNA (%) iWAT [6]: 71.2%
Survial (%) ([7]; QVD-Oph 20 μM applied 4 hours before): 53.9 (±2.2) %
Survial (%) ([7]; without QVD-Oph): 39.5 (±3.7) %
inhibition of the death of senescent cells by the caspase inhibitor ([7]; QVD-Oph 20 μM, ABT-263 1 μM): did not effectively inhibit

COC(=O)c1ccc([C@H]2c3[nH]c4ccccc4c3C[C@H](C(=O)OC)N2C(=O)CCl)cc1 [LX-405]
Survival (%) ([8]; supernatant from compound-treated medium without cells (No Cells)): 99.4 (±2.4) %
Survival (%) ([8]; supernatant from death-induced proliferating foreskin cells (compound 30 μM)): 104 (±3) %
Survival (%) ([8]; supernatant from death-induced senescent foreskin cells (compound 30 μM)): 100.2 (±5.6) %
